Results as given in PMC8878317, “Chemogenomics identifies acetyl-coenzyme A synthetase as a target for malaria treatment and prevention” (Cell Chemical Biology, 2022).
Where two headings read alike, the source gives them in different places.

Experiments:
HsAcAS WT = target: T1, HsAcAS WT (Homo sapiens, UniProt Q9NR19); experiment: HsAcAS Rapid-Fire QQQ mass spectrometry assay; format: biochemical; conditions: for IC50: approximate Km for each substrate, read-out: IC50 (μM), AcAS HsWT
T1 construct: made in house; host or cells: Expi293 cells (pCDNA 3.1, transient transfection)
Method: The human form of acetyl-CoA synthetase was assayed in 100 mM HEPES (pH7.4), 100 mM NaCl, 250 mM KCl, 50 mM MgCl2, 1 mM DTT, 0.005% NP40, 400 μM ATP, 70 μM acetate, 40 μM CoA and 2 nM recombinant HsAcAS. Assay ready plates containing different concentrations of inhibitor were prepared using an Echo 550 acoustic dispenser (Labcyte Inc.), dispensing 150 nL of compound per well. Assays were conducted in a total volume of 15 μL for 30 min at room temperature before being quenched with the addition of 85 μL 1% formic acid containing 0.5 μg/mL n-Propionyl coenzyme A (Sigma P5397) as an internal standard. Reaction products were detected using a RapidFire 365 system (Agilent, Santa Clara, CA) coupled with a triple quadrupole mass spectrometer 6740 (Agilent).
The sipper was washed to minimize carryover with 0.1% TFA in deionized water followed by 0.1% TFA in acetonitrile/deionized water (95%/5%, v/v). The sipper was washed to minimize carryover with deionized water followed by acetonitrile. Aspiration time, load/wash time, elution time, and re-equilibration time were set to 600, 3000, 5000, and 500 ms, respectively, with a cycle time of approximately 10 s. The triple-quadrupole mass spectrometer with electrospray ion source was operated in positive multiple reaction monitoring (MRM) mode. The detailed setting for the mass spectrometer parameters was as follows: capillary voltage, 3000 V; gas temperature, 350°C; gas flow, 7 L/min; nebulizer, 40 psi; sheath gas temperature, 300°C′ sheath gas flow, 11 L/min; and nozzle voltage, 1500 V. The MRM transitions for acetyl-CoA as a reaction product were set as 810.1/303.1 & 810.1/428.1 (quantifier & qualifier with dwell time of 50 ms, 100V fragmentor, and collision energies of 30 & 28 eV respectively) and for n-propionyl-CoA as an internal standard as 824.2/317.2 & 824.2/428.0 (quantifier & qualifier with dwell time of 50 ms, 100V fragmentor, and collision energies of 32 & 26 eV respectively). The mass resolution window for both parental and daughter ions was set at as a unit (0.7 Da). Peak areas were integrated, and area ratios of acetyl-CoA to the internal standard (n-propionyl CoA) were used for quantitation. Data were converted to % inhibition relative to the uninhibited enzyme control and fitted to Equation 3.

PfAcAS WT = PfAcAS WT (Plasmodium falciparum, UniProt C6KTB4); experiment: PfAcAS mode of inhibition studies (EnzChek); format: biochemical, P. falciparum; parameters: key to MoI (mode of inhibition), Kis/Kii,acetate / MoI (mode of inhibition), Ki,ATP / MoI (mode of inhibition), Kis,acetate / MoI (mode of inhibition), Ki,CoA: UC = uncompetitive; MI = mixed inhibition; C = competitive
Method: Steady-state kinetic measurements were conducted at room temperature using a PheraStar plate reader (BMG). The first step of the reaction of PfAcAS, which produces inorganic pyrophosphate (PPi) that is converted to two molecules of inorganic phosphate using a pyrophosphatase enzyme, was continuously monitored using the EnzChek Phosphate Assay Kit, which gives an absorbance readout at 360 nm (Figure 4A) ([Webb, 1992]). […] By adding CoA, the reaction rapidly proceeds to the second step resulting in further release of pyrophosphate, making the EnzChek assay a suitable option to continuously monitor the activity of PfAcAS. Typical kinetic assays were carried out in clear, flat-bottom, polystyrene, 384-well plates (Greiner) in an 80 μL reaction volume containing 100 mM HEPES (pH7.4), 100 mM NaCl, 250 mM KCl, 50 mM MgCl2, 1 mM DTT, 0.004% Tween 20, 0.5 U/mL pyrophosphatase, 0.1 mM MESG, 0.5 U/mL PNP, 2 mM ATP, 2 mM acetate, 0.5 mM CoA and 5 nM recombinant PfAcAS WT or 10 nM recombinant PfAcAS A597V or T648M. Assays were performed by adding 40 μL of a 2-times concentrated substrate mixture including MESG to all wells, and the reactions started by adding 40 μL of a 2-times concentrated reaction mixture containing all other components. The reactions were carried out for 2 to 4 hr with absorbance readings at 360 nm every two to four minutes. Reaction rates were extracted from the linear phase of activity, usually using 10 to 20 points between times of 30 and 100 min of the reactions. Using a phosphate standard curve obtained under the same buffer conditions used for the PfAcAS reactions (Figure S5A), the rates were then converted to velocity per second, conversion of one nanomolar of phosphate, per nanomolar of enzyme, per second. The substrates Km values were determined by varying the concentration of one of the substrates at saturating concentration of the other two substrates. Steady-state data were fitted using the nonlinear, least-squares, curve-fitting programs of Sigma-Plot for Windows, version 14.0. Individual saturation curves were fit to Equation 1(Equation 1) v=VS/K+S where V is the maximal velocity, S is the substrate concentration and K is the Michaelis constant for the substrate (Km). Individual saturation curves displaying substrate inhibition were fit to Equation 2(Equation 2) v=VS/K+S×(1+S/Ks) where Ks is the substrate inhibition constant.
To determine the steady-state inhibition parameters and patterns associated with both inhibitors, PfAcAS activity was studied in the presence of variable concentrations of one substrate, ATP, acetate or CoA, fixed saturating concentration of the other two substrates (acetate and CoA, ATP and CoA, or ATP and acetate) and several fixed concentrations of inhibitor. Assay ready plates containing different concentrations of inhibitor were prepared using an Echo 550 acoustic dispenser (Labcyte Inc.). The assays were carried out as described in the previous section. […] For better comparison between both inhibitors and proteins, the ymin was fixed to zero and the ymax to 100. Inhibition data showing linear, competitive patterns in double-reciprocal plots were fit to Equation 4(Equation 4) v=VS/K(1+I/Ki)+S where Ki is the dissociation constant for the enzyme-inhibitor complex. Inhibition data showing linear, mixed inhibition patterns in double-reciprocal plots were fit to Equation 5(Equation 5) v=VS/K(1+I/Kis)+S(1+I/Kii) where Kis is the dissociation constant for the free enzyme-inhibitor complex and Kii is the dissociation constant for the enzyme-substrate-inhibitor complex. Inhibition data showing linear, uncompetitive patterns in double-reciprocal plots were fit to Equation 6(Equation 6) v=VS/K+S(1+I/Ki)

[1] = variable ATP, saturating acetate and CoA, linear uncompetitive, read-out: Ki versus ATP
[2] = variable CoA, saturating ATP and acetate, read-out: Ki versus CoA

T1 sequence (Q9NR19 whole entry): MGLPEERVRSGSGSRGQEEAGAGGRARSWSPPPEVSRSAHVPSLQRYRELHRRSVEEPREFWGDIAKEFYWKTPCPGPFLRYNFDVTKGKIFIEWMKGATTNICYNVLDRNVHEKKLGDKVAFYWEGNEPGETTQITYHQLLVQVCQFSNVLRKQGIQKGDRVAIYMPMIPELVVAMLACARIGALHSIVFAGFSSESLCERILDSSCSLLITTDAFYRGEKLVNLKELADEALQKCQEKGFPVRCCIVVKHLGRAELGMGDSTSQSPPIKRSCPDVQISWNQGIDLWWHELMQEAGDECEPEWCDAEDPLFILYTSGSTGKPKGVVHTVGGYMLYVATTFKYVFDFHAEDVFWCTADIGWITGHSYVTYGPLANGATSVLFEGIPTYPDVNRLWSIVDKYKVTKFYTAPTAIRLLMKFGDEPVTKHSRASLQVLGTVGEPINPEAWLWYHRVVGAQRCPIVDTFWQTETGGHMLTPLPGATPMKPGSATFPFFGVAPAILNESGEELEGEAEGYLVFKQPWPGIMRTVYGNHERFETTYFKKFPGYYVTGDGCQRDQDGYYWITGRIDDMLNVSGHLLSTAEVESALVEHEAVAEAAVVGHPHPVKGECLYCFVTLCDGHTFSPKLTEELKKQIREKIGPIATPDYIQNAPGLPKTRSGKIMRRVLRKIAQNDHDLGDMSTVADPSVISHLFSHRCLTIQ
Chain of PfAcAS WT (C6KTB4 entry or part of it): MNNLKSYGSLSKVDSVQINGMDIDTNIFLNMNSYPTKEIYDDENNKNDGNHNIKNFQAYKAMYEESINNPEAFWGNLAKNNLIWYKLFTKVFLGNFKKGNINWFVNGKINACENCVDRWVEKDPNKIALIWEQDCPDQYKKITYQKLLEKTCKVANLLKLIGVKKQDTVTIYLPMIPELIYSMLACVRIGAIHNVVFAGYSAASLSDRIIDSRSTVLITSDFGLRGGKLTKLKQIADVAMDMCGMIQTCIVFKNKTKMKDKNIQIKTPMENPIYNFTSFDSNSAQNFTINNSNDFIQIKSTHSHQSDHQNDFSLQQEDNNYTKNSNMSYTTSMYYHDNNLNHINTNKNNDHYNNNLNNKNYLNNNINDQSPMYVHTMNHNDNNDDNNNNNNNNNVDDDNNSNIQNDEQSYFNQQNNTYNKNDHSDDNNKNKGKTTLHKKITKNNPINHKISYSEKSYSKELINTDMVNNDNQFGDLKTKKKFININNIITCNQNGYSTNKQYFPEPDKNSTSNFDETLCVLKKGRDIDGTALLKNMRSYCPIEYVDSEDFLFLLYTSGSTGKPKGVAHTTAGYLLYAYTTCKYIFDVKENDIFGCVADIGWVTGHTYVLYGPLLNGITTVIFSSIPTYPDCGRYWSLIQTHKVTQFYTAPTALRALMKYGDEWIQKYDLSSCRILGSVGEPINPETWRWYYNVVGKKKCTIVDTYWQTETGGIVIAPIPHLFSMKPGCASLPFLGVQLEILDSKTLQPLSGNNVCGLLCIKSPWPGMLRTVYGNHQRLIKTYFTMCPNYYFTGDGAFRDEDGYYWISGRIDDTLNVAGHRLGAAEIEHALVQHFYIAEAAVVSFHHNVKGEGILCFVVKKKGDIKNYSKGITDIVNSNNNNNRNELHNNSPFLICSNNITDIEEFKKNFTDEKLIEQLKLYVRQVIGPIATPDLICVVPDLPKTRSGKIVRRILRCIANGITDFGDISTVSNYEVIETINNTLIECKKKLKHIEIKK

Row | Structure (SMILES) | Hill, AcAS HsWT (HsAcAS WT) | IC50 (HsAcAS WT) [µM] | Kii against acetate (PfAcAS WT; linear mixed inhibition, enzyme-substrate-inhibitor complex) [nM] | Ki (PfAcAS WT; linear mixed inhibition, free enzyme-inhibitor complex, read-out: Kis against acetate) [nM] | Ki (PfAcAS WT; [1]) [nM] | Ki (PfAcAS WT; [2]) [nM] | MoI (mode of inhibition), Ki,ATP (PfAcAS WT; Table S6 (MMV019721 MoI)) | MoI (mode of inhibition), Ki,CoA (PfAcAS WT; Table S6 (MMV019721 MoI)) | MoI (mode of inhibition), Kis,acetate (PfAcAS WT; Table S6 (MMV019721 MoI)) | MoI (mode of inhibition), Kis/Kii,acetate (PfAcAS WT; Table S6, fourth column (head printed MMV019721 MoI)) | Ki (PfAcAS WT; variable acetate, saturating ATP and CoA, linear uncompetitive, read-out: Ki versus acetate) [nM]
1 | O=C(NNC(=O)c1csnn1)c1ccc(Cl)cc1 [MMV084978] | 0.85 ± 0.07 | 18 ± 1.9 | 390 ± 110 | 30 ± 3 | 680 ± 26 | 690 ± 24 |  |  |  |  | 
2 | CCN(CC)S(=O)(=O)c1ccc(Cl)c(C(=O)Nc2ccc3nc(C)sc3c2)c1 [MMV019721] |  | > 100 |  |  | 200 ± 8 | 22 ± 1 | UC | C | UC | MI | 150 ± 10
